# System: HT-29 cells
# Assay: Cell-based necroptosis assay for RIPK1 activity (cell viability, CCK-8)
# Conditions: HT29 (human colon cancer), Z-VAD-FMK 20 μM, human TNFα 10 ng/ml, SM-164 100 nM, 24 h, read-out: Necroptosis inhibition (IC50)
# Procedure: Human colon carcinoma cell HT-29 (KCLB 30038), BV2 mouse microglial cell (cell was a kind gift from Dr. Nak-Yun Sung, Senior researcher at Korea Prime Pharmacy CO., LTD.) and human microglial cell HMC3 (ATCC® CRL-3304™). HT-29 cell was grown in Roswell Park Memorial Institute (RPMI) 1640, BV2 cell was grown in Dulbecco's Modified Eagle's Medium (DMEM) and HMC3 cell was grown in Minimum Essential Media Eagle (MEM) supplemented with 10% fetal bovine serum and 1% mixture of penicillin and streptomycin (Gibco). Cells were maintained at 37° C. in a humidified 5% CO2 atmosphere.
# To measure the activity of RIPK1 inhibitor in necroptotic cells, HT-29 cells were treated by control DMSO, human TNFα (Peprotech, Rocky Hill, USA), SM-164 (Biovision, California, USA) and a pan-caspase inhibitor Z-VAD-FMK (Invivogen, San Diego, USA). Cells were pretreated with Z-VAD-FMK 20 μM. After 30 min, human TNFα 10 ng/ml, SM-164 100 nM and RIPK1 Inhibitor (0.0001, 0.001, 0.01, 0.02, 0.05, 0.1, 1, 10 uM) were treated for 24 h. Cell viability was measured by Cell Counting Kit 8 (CCK-8) (Dong-in, Seoul, Korea).
row,Structure (SMILES),IC50 [nM]
1,"CN1C(=O)[C@@H](NC(=O)n2cc(Cc3ccccc3)cn2)COc2cc(F)cc(F)c21 [Example 16, (S)-4-benzyl-N-(6,8-difluoro-5-methyl-4-oxo-2,3,4,5-tetrahydrobenzo[b][1,4]oxazepin-3-yl)-1H-pyrazole-1-carboxamide]",< 10
2,"CN1C(=O)C(NC(=O)n2cc(Cc3cccc(F)c3)cn2)CCc2cc(F)cc(F)c21 (stereo not drawn) [Example 28, N-(7,9-difluoro-1-methyl-2-oxo-2,3,4,5-tetrahydro-1H-benzo[b]azepin-3-yl)-4-(3-fluorobenzyl)-1H-pyrazole-1-carboxamide]",< 10
3,"O=C1Nc2ccccc2OC[C@@H]1NC(=O)n1cc(Cc2ccccc2)cn1 [Example 1, (S)-4-benzyl-N-(4-oxo-2,3,4,5-tetrahydrobenzo[b][1,4]oxazepin-3-yl)-1H-pyrazole-1-carboxamide]",< 100
4,"O=C1Nc2nccnc2CCC1NC(=O)n1cc(Cc2cccc(F)c2)cn1 (stereo not drawn) [Example 30, 4-(3-fluorobenzyl)-N-(6-oxo-6,7,8,9-tetrahydro-5H-pyrazino[2,3-b]azepin-7-yl)-1H-pyrazole-1-carboxamide]",> 100
5,"CN1C(=O)[C@@H](NC(=O)n2cc(Cc3cccc(F)c3)cn2)COc2cc(F)ncc21 [Example 35, (S)—N-(8-fluoro-5-methyl-4-oxo-2,3,4,5-tetrahydropyrido[4,3-b][1,4]oxazepin-3-yl)-4-(3-fluorobenzyl)-1H-pyrazole-1-carboxamide]",< 10
6,"CN1C(=O)[C@@H](NC(=O)n2cc(Cc3ccccc3)cn2)COc2ccnc(F)c21 [Example 32, (S)-4-benzyl-N-(6-fluoro-5-methyl-4-oxo-2,3,4,5-tetrahydropyrido[4,3-b][1,4]oxazepin-3-yl)-1H-pyrazole-1-carboxamide]",< 10
